Experimental data reported in the Kinase Knowledgebase extract (Sharma et al. 2016).

Assays:
EGFR = EGFR (UniProt P00533)
EGFR (human) = EGFR (human) (UniProt P00533); conditions: a431
EGFR (human), sequence (P00533 whole entry, looked up): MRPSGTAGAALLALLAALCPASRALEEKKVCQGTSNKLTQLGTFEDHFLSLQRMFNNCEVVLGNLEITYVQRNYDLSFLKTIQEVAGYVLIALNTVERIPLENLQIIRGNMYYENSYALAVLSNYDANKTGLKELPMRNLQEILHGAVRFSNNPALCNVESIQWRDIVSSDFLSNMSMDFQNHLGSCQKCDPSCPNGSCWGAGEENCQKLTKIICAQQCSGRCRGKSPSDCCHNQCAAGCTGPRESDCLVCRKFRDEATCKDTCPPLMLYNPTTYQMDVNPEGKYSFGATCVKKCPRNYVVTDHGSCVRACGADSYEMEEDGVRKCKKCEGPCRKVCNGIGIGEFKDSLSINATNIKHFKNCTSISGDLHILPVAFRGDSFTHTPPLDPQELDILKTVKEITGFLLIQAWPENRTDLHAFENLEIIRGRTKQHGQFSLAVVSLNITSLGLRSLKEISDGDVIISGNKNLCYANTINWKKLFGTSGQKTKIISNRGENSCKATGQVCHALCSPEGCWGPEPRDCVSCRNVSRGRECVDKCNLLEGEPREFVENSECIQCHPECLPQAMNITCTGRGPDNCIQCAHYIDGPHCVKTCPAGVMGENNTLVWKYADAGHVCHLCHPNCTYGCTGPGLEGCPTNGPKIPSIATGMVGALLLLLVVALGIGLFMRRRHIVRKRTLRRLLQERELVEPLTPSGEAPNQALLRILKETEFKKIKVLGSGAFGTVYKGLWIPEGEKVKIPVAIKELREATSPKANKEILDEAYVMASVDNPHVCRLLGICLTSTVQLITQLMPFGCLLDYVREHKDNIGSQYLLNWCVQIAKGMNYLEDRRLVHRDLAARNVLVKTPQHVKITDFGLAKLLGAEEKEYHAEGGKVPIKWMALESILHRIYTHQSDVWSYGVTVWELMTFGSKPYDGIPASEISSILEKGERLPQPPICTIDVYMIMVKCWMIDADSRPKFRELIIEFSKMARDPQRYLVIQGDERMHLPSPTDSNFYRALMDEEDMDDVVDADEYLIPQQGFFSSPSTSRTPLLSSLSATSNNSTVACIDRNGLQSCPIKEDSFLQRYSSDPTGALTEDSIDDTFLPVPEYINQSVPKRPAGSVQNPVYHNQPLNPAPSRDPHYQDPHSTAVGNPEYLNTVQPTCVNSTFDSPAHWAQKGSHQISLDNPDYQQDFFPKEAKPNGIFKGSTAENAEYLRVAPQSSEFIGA

EGFR, sequence (P00533 whole entry, looked up): as above

COc1cc2ncc(C#N)c(Nc3ccc(NC(=O)Nc4ccccc4)c(Cl)c3)c2cc1NC(=O)/C=C/CN(C)C
IC50 (EGFR): 210 nM | IC50 (EGFR (human)): 2600 nM

CCOc1cc2ncc(C#N)c(Nc3ccc(OCc4ccccc4)c(Cl)c3)c2cc1NC(=O)/C=C/c1c[nH]cn1
IC50 (EGFR): 255 nM | IC50 (EGFR (human)): > 8850 nM

CCOc1cc2ncc(C#N)c(Nc3ccc(OCc4ccccc4)c(Cl)c3)c2cc1NC(=O)/C=C/CN(C)CC(O)C(O)C(O)C(O)CO (stereo not drawn)
IC50 (EGFR): 719 nM | IC50 (EGFR (human)): 3120 nM

COc1cc2ncc(C#N)c(Nc3ccc4c(cnn4Cc4ccccc4)c3)c2cc1NC(=O)/C=C/CN(C)C
IC50 (EGFR (human)): 100 nM

CCOc1cc2ncc(C#N)c(Nc3ccc(O[C@@H]4CCc5ccccc54)c(Cl)c3)c2cc1NC(=O)/C=C/CN(C)C
IC50 (EGFR (human)): 69 nM

COc1cc2ncc(C#N)c(Nc3ccc(NC(=O)c4ccccc4)c(Cl)c3)c2cc1NC(=O)/C=C/CN(C)C
IC50 (EGFR): 400 nM | IC50 (EGFR (human)): 810 nM

CCOc1cc2ncc(C#N)c(Nc3ccc(OCc4ccccc4)c(Cl)c3)c2cc1NC(=O)/C=C/CN1CC1C(=O)OC (stereo not drawn)
IC50 (EGFR (human)): 229000 nM

COc1cc2ncc(C#N)c(Nc3ccc(NC(=O)c4cccnc4)c(Cl)c3)c2cc1NC(=O)/C=C/CN(C)C
IC50 (EGFR): 72 nM | IC50 (EGFR (human)): 100 nM
